Data set [1] has as its system pancreatic Colo357-FG cell line. As to the kind of experiment: In vitro activity in pancreatic Colo357-FG cell line. It counts as cell-based. The note with it: COLO 357/FG; Colo357FG pancreatic cell line; concentration reducing cell viability to half. The source says:
As used herein, reference to “IC50” is intended to refer to the concentration of a compound or composition that reduces the viability of cells to half the original level. In broader terms, IC50 can refer to half the maximal inhibitory concentration of a substance for inhibiting various biological processes.
In vitro activity in pancreatic Colo357-FG cell line is provided below in Table 1.

Data set [2] is described as follows: Preliminary biodistribution / pharmacokinetic study by oral gavage, 2-DG content in plasma and brain by LC/MS/MS. It counts as in vivo. As to conditions: CD-1 mice. The source says: Analytical methodologies (LC/MS/MS) were developed that are capable of quantifying these acetate sugars and the resulting liberation of 2-DG in various biomatrices (plasma and brain tissue). Using this analytical method preliminary biodistribution studies were undertaken in CD-1 mice to examine the pharmacokinetics of these novel agents.
Briefly, four animals per treatment group were given equivalent doses of either 2-DG, the compound of Example 6 (6-O-acetate of 2-DG) or the compound of Example 4 (4,6-di-O-acetate of 2-DG) by oral gavage using the same vehicle. Individual groups of animals were then sacrificed at 0.25, 0.5, 1, 2 and 4 hours following dose administration. From each animal plasma and brain tissues were harvested and then analyzed for 2-DG content by LC/mass spectrometry.

The structures appear in SMILES notation.

For `CC(=O)OC1CC(O)C(O)C(CO)O1` [Example 1, 1-O-Acetyl-2-deoxy-D-glucose], it took 11.9 mM to reach half-maximal inhibition in data set [1] (IC50).
Turning to `CC(=O)OCC1OC(O)CC(OC(C)=O)C1O` (stereo not shown) [Example 5], the IC50 (as a rule, the concentration at which inhibition is half-maximal) in data set [1] turned out to be 1.6 mM.
`CC(=O)OCC1OC(OC(C)=O)CC(O)C1O` (stereo not shown) [Example 3]: the IC50 in data set [1] was determined as 17.2 mM.
On to `OCC1OC(O)CC(O)C1O` (stereo not shown) [Example 2-DG, 2-deoxy-glucose, reference compound], for which the “highest attained brain tissue concentration of 2-DG” value in data set [2] (at 2 hrs after administration) was found to be 12 μg/gm. The half-maximal inhibitory concentration (IC50) in data set [1] amounted to 9.7 mM.
In the case of `CC(=O)OCC1OC(O)CC(O)C1O` [Example 6, 6-O-acetyl-2-deoxy-D-glucose], in data set [2] (brain), the “duration of active concentrations of 2-DG at the site of action (brain) relative to 2-DG alone” value is given as “more than twice as long”.
Take `CC(=O)OCC1OC(O)CC(O)C1OC(C)=O` [Example 4, 4,6-Di-O-acetyl-2-deoxy-D-glucose]: the IC50 in data set [1] came to 1.7 mM.

(Values after US8927506B2, “Acetates of 2-deoxy monosaccharides with anticancer activity” (Board of Regents, The University of Texas System, priority 2008, dated 2015).)
